Results on 53 compounds are retold here after patent US10124004B2, “Pyrido[3,4-d]pyrimidine derivative and pharmaceutically acceptable salt thereof” (Teijin Pharma Limited, priority 2015, dated 2018).

pIC50: −log10 of the molar value. Bounds are passed on as bounds.

In test [1] the target is T1, CDK4/cyclin D3 (Homo sapiens, UniProt P11802).
T1 construct: purchased Carna Biosciences, Inc. QS S Assist CDK4/Cyclin D3_FP Kit
Description: Human CDK4/cyclin D3 inhibitory activity (QS S Assist CDK4/Cyclin D3_FP Kit, IMAP fluorescence polarization). In kind it is biochemical. Conditions: Human CDK4/cyclin D3 inhibitory activity; read-out: CDK4 Activity symbol. A digest of the protocol:
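IMAP fluorescence-polarization kinase assay with kit ATP/substrate/metal mix and 12.5 to 25 ng/well enzyme in 20 mM HEPES pH 7.4, 0.01% Tween20, 2 mM DTT. Reaction ran 45 min at room temperature, then binding reagent was added for 30 min in the dark. IC50 was taken from dose-response fits of percent inhibition.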

In test [2] the target is T2, CDK2/cyclin A2 (Homo sapiens, UniProt P24941).
T2 construct: purchased Carna Biosciences, Inc. QS S Assist CDK2/Cyclin A2_FP Kit
Nature of the test: Human CDK2/cyclin A2 inhibitory activity (QS S Assist CDK2/Cyclin A2_FP Kit, IMAP fluorescence polarization). The test is classed as biochemical. The conditions noted are these: Human CDK2/cyclin A2 inhibitory activity; read-out: CDK2 Activity symbol. An outline of the steps:
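Kinase activity read as fluorescence polarization (485/535 nm) after phosphorylated fluorescent substrate binds IMAP reagent (30 min, RT, dark). Enzyme (2.5 ng/well) reacted 60 min at RT with ATP/substrate/metal in HEPES pH 7.4 buffer with Tween 20 and DTT; no-enzyme wells define 0% activity; IC50 by curve fit.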
(In general: Fluorescence polarisation rises when a labelled molecule tumbles more slowly, as on binding a larger partner.)

T1 sequence (P11802 whole entry): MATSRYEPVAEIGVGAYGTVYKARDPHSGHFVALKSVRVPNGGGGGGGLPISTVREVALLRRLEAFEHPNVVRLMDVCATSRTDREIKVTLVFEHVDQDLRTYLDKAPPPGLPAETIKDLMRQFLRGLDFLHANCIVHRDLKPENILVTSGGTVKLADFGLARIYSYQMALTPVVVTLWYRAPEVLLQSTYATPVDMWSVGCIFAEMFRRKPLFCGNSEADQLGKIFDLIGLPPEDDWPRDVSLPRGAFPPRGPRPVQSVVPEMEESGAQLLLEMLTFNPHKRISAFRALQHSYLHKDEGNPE
T1 sequence (P30281 whole entry partner): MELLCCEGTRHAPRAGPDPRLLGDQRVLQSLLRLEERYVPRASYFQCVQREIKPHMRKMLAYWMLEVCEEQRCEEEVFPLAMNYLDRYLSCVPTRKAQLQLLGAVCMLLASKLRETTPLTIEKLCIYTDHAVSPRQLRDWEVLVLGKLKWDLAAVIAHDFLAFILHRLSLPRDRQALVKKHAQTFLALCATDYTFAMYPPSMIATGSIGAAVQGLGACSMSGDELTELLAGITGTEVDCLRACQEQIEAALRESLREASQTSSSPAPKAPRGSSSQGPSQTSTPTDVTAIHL

On to `CC(C)Nc1nc(C(F)F)cc2cnc(Nc3ccc(CCCCO)cn3)nc12` [Compound 108], for which the pIC50 in test [1] was over 8.00; in test [2], 7.00 to 8.00.
For the compound `CC(C)Nc1nc(C(F)F)cc2cnc(Nc3ccc(C(=O)NCCO)cn3)nc12` [Compound 109], the pIC50 was 7.00 to 8.00 in test [1] and at most 7.00 in test [2].
For the compound `CC(C)Nc1nc(C(F)F)cc2cnc(Nc3ccc(-c4ccc(O)cc4)cn3)nc12` [Compound 110], the pIC50 in test [1] and in test [2] was at most 7.00 in each case.
Take `CC(C)Nc1nc(C(F)F)cc2cnc(Nc3ccc(CCC(=O)O)cn3)nc12` [Compound 111]: the pIC50 in test [1] was 7.00 to 8.00; in test [2] it was at most 7.00.
For `CC(C)Nc1nc(C(F)F)cc2cnc(Nc3ccc(S(=O)(=O)CCCO)cn3)nc12` [Compound 112], in that order: 7.00 to 8.00 and 7.00 to 8.00.
For `CC(C)Nc1nc(C(F)F)cc2cnc(Nc3ccc(CN4CCS(=O)(=O)CC4)cn3)nc12` [Compound 113], in that order: over 8.00 and at most 7.00.
For `CC(C)Nc1nc(C(F)F)cc2cnc(Nc3ccc(CN4CCN(S(=O)(=O)N(C)C)CC4)cn3)nc12` [Compound 114], in that order: 7.00 to 8.00 and at most 7.00.
Take `CC(C)Nc1nc(C(F)F)cc2cnc(Nc3ccc(CN4CCN(S(C)(=O)=O)CC4)cn3)nc12` [Compound 115]: the pIC50 is over 8.00 in test [1] and at most 7.00 in test [2].
Take `CC(C)Nc1nc(C(F)F)cc2cnc(Nc3ccc(CN4CCN(CC(F)(F)F)CC4)cn3)nc12` [Compound 116]: the pIC50 was 7.00 to 8.00 in test [1] and at most 7.00 in test [2].
Taken in the same sequence, the figures for `CC(=O)N1CCN(Cc2ccc(Nc3ncc4cc(C(F)F)nc(NC(C)C)c4n3)nc2)CC1` [Compound 117] were over 8.00 and at most 7.00.
For `CC(C)Nc1nc(C(F)F)cc2cnc(Nc3ccc(CN4CCC(C(C)(C)O)CC4)cn3)nc12` [Compound 118], in that order: over 8.00 and 7.00 to 8.00.
For `CC(C)Nc1nc(C(F)F)cc2cnc(Nc3ccc(O[C@H]4CC[C@@H](O)CC4)cn3)nc12` [Compound 119], in that order: 7.00 to 8.00 and at most 7.00.
Turning to `CC(C)Nc1nc(C(F)F)cc2cnc(Nc3ccc(O[C@H]4CC[C@H](O)CC4)cn3)nc12` [Compound 120], the pIC50 in test [1] is 7.00 to 8.00; in test [2], at most 7.00.
Taken in the same sequence, the figures for `CC(C)Nc1nc(C(F)F)cc2cnc(Nc3ccc(CCC(N)=O)cn3)nc12` [Compound 121] were over 8.00 and 7.00 to 8.00.
With `CC(C)Nc1nc(C(F)F)cc2cnc(Nc3ccc(OCC(C)(C)CO)cn3)nc12` [Compound 122], the pIC50 in test [1] was 7.00 to 8.00; in test [2], at most 7.00.
Taken in the same sequence, the figures for `CC(C)Nc1nc(C(F)F)cc2cnc(Nc3ccc(OCCCN4CCCC4=O)cn3)nc12` [Compound 123] were 7.00 to 8.00 and at most 7.00.
Taken in the same sequence, the figures for `CC(=O)NCc1ccc(Nc2ncc3cc(C(F)F)nc(NC(C)C)c3n2)nc1` [Compound 124] were 7.00 to 8.00 and at most 7.00.
Taken in the same sequence, the figures for `CC(C)Nc1nc(C(F)F)cc2cnc(Nc3ccc(CN4CCC(C(N)=O)CC4)cn3)nc12` [Compound 125] were over 8.00 and 7.00 to 8.00.
In the case of `CC(C)Nc1nc(C(F)F)cc2cnc(Nc3ccc(CN4CC(O)C4)cn3)nc12` [Compound 126], the pIC50 in test [1] and in test [2] was at most 7.00 each time.
For `CC(C)Nc1nc(C(F)F)cc2cnc(Nc3ccc(CN4CCCC(CO)C4)cn3)nc12` (stereo not shown) [Compound 127], the pIC50 in test [1] was over 8.00; in test [2], 7.00 to 8.00.
Regarding `CC(C)Nc1nc(C(F)F)cc2cnc(Nc3ccc(CN4CCCC(O)C4)cn3)nc12` (stereo not shown) [Compound 128], the pIC50 in test [1] is over 8.00; in test [2], 7.00 to 8.00.
Taken in the same sequence, the figures for `CC(C)Nc1nc(C(F)F)cc2cnc(Nc3ccc(CN4CCC(C(=O)O)CC4)cn3)nc12` [Compound 129] were over 8.00 and 7.00 to 8.00.
Taken in the same sequence, the figures for `CC(C)Nc1nc(C(F)F)cc2cnc(Nc3ccc(CN4CCC(N(C)C)CC4)cn3)nc12` [Compound 130] were over 8.00 and 7.00 to 8.00.
For `CC(C)Nc1nc(C(F)F)cc2cnc(Nc3ccc(CN4CCNC(=O)C4)cn3)nc12` [Compound 131], in that order: over 8.00 and 7.00 to 8.00.
As for `CC(C)Nc1nc(C(F)F)cc2cnc(Nc3ccc(CC(N)=O)cn3)nc12` [Compound 132], the values for the pIC50 in test [1] and in test [2] were over 8.00 and 7.00 to 8.00, respectively.
Taken in the same sequence, the figures for `CC(C)Nc1nc(C(F)F)cc2cnc(Nc3ccc(CC(=O)O)cn3)nc12` [Compound 133] were 7.00 to 8.00 and at most 7.00.
For `CC(C)Nc1nc(C(F)F)cc2cnc(Nc3ccc(CCO)cn3)nc12` [Compound 134], in that order: over 8.00 and 7.00 to 8.00.
For `CC(C)Nc1nc(C(F)F)cc2cnc(Nc3ccc(CCCC(N)=O)cn3)nc12` [Compound 135], in that order: over 8.00 and at most 7.00.
Consider `CC(C)Nc1nc(C(F)F)cc2cnc(Nc3ccc(CCCC(=O)O)cn3)nc12` [Compound 136], for which the figures for the pIC50 in test [1] and in test [2] were 7.00 to 8.00 and at most 7.00, respectively.
Taken in the same sequence, the figures for `CC(C)Nc1nc(C(F)F)cc2cnc(Nc3ccc(N4CC[C@H](O)CC4=O)cn3)nc12` [Compound 137] were over 8.00 and 7.00 to 8.00.
Taken in the same sequence, the figures for `CC(C)Nc1nc(C(F)F)cc2cnc(Nc3ccc(CNC(N)=O)cn3)nc12` [Compound 138] were over 8.00 and 7.00 to 8.00.
For `CC(=O)N(C)Cc1ccc(Nc2ncc3cc(C(F)F)nc(NC(C)C)c3n2)nc1` [Compound 139], in that order: over 8.00 and 7.00 to 8.00.
In the case of `CC(C)Nc1nc(C(F)F)cc2cnc(Nc3ccc(CNS(C)(=O)=O)cn3)nc12` [Compound 140], the pIC50 in test [1] is over 8.00; in test [2], at most 7.00.
For `CC(C)Nc1nc(C(F)F)cc2cnc(Nc3ccc(CN(C)S(C)(=O)=O)cn3)nc12` [Compound 141], in that order: over 8.00 and at most 7.00.
In the case of `CC(C)Nc1nc(C(F)F)cc2cnc(Nc3ccc(CN4CCC(O)CC4)cn3)nc12` [Compound 142], the pIC50 in test [1] is over 8.00; in test [2] it was 7.00 to 8.00.
For `CC(C)Nc1nc(C(F)F)cc2cnc(Nc3ccc(CN(CC4CCOCC4)S(C)(=O)=O)cn3)nc12` [Compound 143], in that order: 7.00 to 8.00 and at most 7.00.
Regarding `CC(=O)N(Cc1ccc(Nc2ncc3cc(C(F)F)nc(NC(C)C)c3n2)nc1)CC1CCOCC1` [Compound 144], the values for the pIC50 in test [1] and in test [2] were over 8.00 and at most 7.00, respectively.
Taken in the same sequence, the figures for `CC(=O)N(Cc1ccc(Nc2ncc3cc(C(F)F)nc(NC(C)C)c3n2)nc1)C[C@H]1CCCO1` [Compound 145] were over 8.00 and 7.00 to 8.00.
For `CC(=O)N(Cc1ccc(Nc2ncc3cc(C(F)F)nc(NC(C)C)c3n2)nc1)C[C@@H]1CCCO1` [Compound 146], in that order: over 8.00 and at most 7.00.
Taken in the same sequence, the figures for `CC(C)Nc1nc(C(F)F)cc2cnc(Nc3ccc(CN4CCC(CO)CC4)cn3)nc12` [Compound 147] were over 8.00 and 7.00 to 8.00.
For `CC(C)Nc1nc(C(F)F)cc2cnc(Nc3ccc(CN(C[C@H]4CCCO4)S(C)(=O)=O)cn3)nc12` [Compound 148], the pIC50 in test [1] was 7.00 to 8.00; in test [2] it was at most 7.00.
With `CC(C)Nc1nc(C(F)F)cc2cnc(Nc3ccc(CN(C[C@@H]4CCCO4)S(C)(=O)=O)cn3)nc12` [Compound 149], the values for the pIC50 in test [1] and in test [2] were 7.00 to 8.00 and at most 7.00, respectively.
Taken in the same sequence, the figures for `CC(=O)NCCc1ccc(Nc2ncc3cc(C(F)F)nc(NC(C)C)c3n2)nc1` [Compound 150] were over 8.00 and 7.00 to 8.00.
With `CC(C)Nc1nc(C(F)F)cc2cnc(Nc3ccc(CCNS(C)(=O)=O)cn3)nc12` [Compound 151], the pIC50 in test [1] is over 8.00; in test [2] it was 7.00 to 8.00.
Taken in the same sequence, the figures for `CC(=O)NCCCc1ccc(Nc2ncc3cc(C(F)F)nc(NC(C)C)c3n2)nc1` [Compound 152] were over 8.00 and 7.00 to 8.00.
As for `CC(C)Nc1nc(C(F)F)cc2cnc(Nc3ccc(CCCNS(C)(=O)=O)cn3)nc12` [Compound 153], the pIC50 in test [1] was over 8.00; in test [2], 7.00 to 8.00.
On to `CC(C)Nc1nc(C(F)F)cc2cnc(Nc3ccc(CCC(C)(C)O)cn3)nc12` [Compound 154], for which the values for the pIC50 in test [1] and in test [2] were over 8.00 and at most 7.00, respectively.
Turning to `CC(C)Nc1nc(C(F)F)cc2cnc(Nc3ccc(OCCO)cn3)nc12` [Compound 155], the results for the pIC50 in test [1] and in test [2] were over 8.00 and 7.00 to 8.00, respectively.
Taken in the same sequence, the figures for `CC(C)Nc1nc(C(F)F)cc2cnc(Nc3ccc(OCCCO)cn3)nc12` [Compound 156] were over 8.00 and at most 7.00.
Taken in the same sequence, the figures for `Cc1ccc(Nc2ncc3cc(C(F)F)nc(NC(C)C)c3n2)nc1` [Compound 157] were 7.00 to 8.00 and at most 7.00.
Taken in the same sequence, the figures for `Cc1nnc(NCc2ccc(Nc3ncc4cc(C(F)F)nc(NC(C)C)c4n3)nc2)[nH]1` [Compound 158] were 7.00 to 8.00 and at most 7.00.
`CC(C)Nc1nc(C(F)F)cc2cnc(Nc3ccc(C4CCS(=O)(=O)CC4)cn3)nc12` [Compound 159]: the pIC50 in test [1] is over 8.00; in test [2], at most 7.00.
Taken in the same sequence, the figures for `CC(C)Nc1nc(C(F)F)cc2cnc(Nc3ccc(C4CCOCC4=O)cn3)nc12` (stereo not shown) [Compound 161] were over 8.00 and 7.00 to 8.00.
